Measured values: the supplement of paper PMC10307832

How the values were obtained:
Test in all cases: relative viability (nuclei count vs DMSO), 5 days (fraction); higher = more cells survive
NCI-H2023 = system: NCI-H2023
Outline: (§1)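 Lung cancer cell lines were pin-tool dosed in 1536-well plates on the day after seeding, with either a lone drug or a fixed anchor-drug dose plus five library-drug doses (not always all listed) in √10 steps. Nuclei were counted on 4× images after 5 days. Relative viability is the ratio of treated-well to vehicle-well nuclei counts, with each value a median of duplicate plates.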

NCI-H2126 = system: NCI-H2126
Outline: as §1

HCC-15 = system: HCC-15
Outline: as §1

LC-2-ad = system: LC-2-ad
Outline: as §1

NCI-H3122 = system: NCI-H3122
Outline: as §1

NCI-H1755 = system: NCI-H1755
Outline: as §1

LU99A = system: LU99A
Outline: as §1

BEN = system: BEN
Outline: as §1

NCI-H1915 = system: NCI-H1915
Outline: as §1

SW 1573 = system: SW 1573
Outline: as §1

HOP-62 = system: HOP-62
Outline: as §1

EMC-BAC-2 = system: EMC-BAC-2
Outline: as §1

HCC-44 = system: HCC-44
Outline: as §1

NCI-H1734 = system: NCI-H1734
Outline: as §1

NCI-H1395 = system: NCI-H1395
Outline: as §1

NCI-H1437 = system: NCI-H1437
Outline: as §1

NCI-H727 = system: NCI-H727
Outline: as §1

NCI-H358 = system: NCI-H358
Outline: as §1

SW 900 = system: SW 900
Outline: as §1

NCI-H2170 = system: NCI-H2170
Outline: as §1

NCI-H1563 = system: NCI-H1563
Outline: as §1

NCI-H650 = system: NCI-H650
Outline: as §1

`Cc1csc(=NC2CCCCC2)n1/N=C/c1ccc(O)c(O)c1O` [MIM1] + CCNC(=O)c1noc(-c2cc(C(C)C)c(O)cc2O)c1-c1ccc(CN2CCOCC2)cc1 [Luminespib] (partner 0.01 µM) gave a relative viability (NCI-H2023; first compound 0.2 µM) of 0.791, a relative viability (NCI-H2023; first compound 0.6325 µM) of 0.691 and a relative viability (NCI-H2023; first compound 2 µM) of 0.646. For the same compound, the relative viability (NCI-H2023; first compound 6.325 µM) was 0.388, the relative viability (NCI-H2023; first compound 20 µM) was 0.07 and the relative viability (NCI-H2126; first compound 0.2 µM) was 0.891. For the same compound, the relative viability (NCI-H2126; first compound 0.6325 µM) was 0.943, the relative viability (NCI-H2126; first compound 2 µM) was 0.957 and the relative viability (NCI-H2126; first compound 6.325 µM) was 0.88. It also gave a relative viability (NCI-H2126; first compound 20 µM) of 0.466, a relative viability (HCC-15; first compound 0.2 µM) of 0.244 and a relative viability (HCC-15; first compound 0.6325 µM) of 0.353. For the same compound, the relative viability (HCC-15; first compound 2 µM) was 0.43, the relative viability (HCC-15; first compound 6.325 µM) was 0.259 and the relative viability (HCC-15; first compound 20 µM) was 0.133. For the same compound, the relative viability (LC-2-ad; first compound 0.2 µM) was 1.06, the relative viability (LC-2-ad; first compound 0.6325 µM) was 0.964 and the relative viability (LC-2-ad; first compound 2 µM) was 0.727. For the same compound, the relative viability (LC-2-ad; first compound 6.325 µM) was 0.485, the relative viability (LC-2-ad; first compound 20 µM) was 0.233 and the relative viability (NCI-H3122; first compound 0.2 µM) was 0.0956. The relative viability (NCI-H3122; first compound 0.6325 µM) was 0.0902, the relative viability (NCI-H3122; first compound 2 µM) was 0.103 and the relative viability (NCI-H3122; first compound 6.325 µM) was 0.106. It also gave a relative viability (NCI-H3122; first compound 20 µM) of 0.0938, a relative viability (NCI-H1755; first compound 0.2 µM) of 0.455 and a relative viability (NCI-H1755; first compound 0.6325 µM) of 0.51. It also gave a relative viability (NCI-H1755; first compound 2 µM) of 0.703, a relative viability (NCI-H1755; first compound 6.325 µM) of 0.459 and a relative viability (NCI-H1755; first compound 20 µM) of 0.414. It also gave a relative viability (LU99A; first compound 0.2 µM) of 0.227, a relative viability (LU99A; first compound 0.6325 µM) of 0.317 and a relative viability (LU99A; first compound 2 µM) of 0.26. The relative viability (LU99A; first compound 6.325 µM) was 0.308, the relative viability (LU99A; first compound 20 µM) was 0.219 and the relative viability (BEN; first compound 0.2 µM) was 0.249. It also gave a relative viability (BEN; first compound 0.6325 µM) of 1.24, a relative viability (BEN; first compound 2 µM) of 0.36 and a relative viability (BEN; first compound 6.325 µM) of 0.329. It also gave a relative viability (BEN; first compound 20 µM) of 0.173, a relative viability (NCI-H1915; first compound 0.2 µM) of 0.743 and a relative viability (NCI-H1915; first compound 0.6325 µM) of 0.641. The relative viability (NCI-H1915; first compound 2 µM) was 0.685, the relative viability (NCI-H1915; first compound 6.325 µM) was 0.579 and the relative viability (NCI-H1915; first compound 20 µM) was 0.183. For the same compound, the relative viability (SW 1573; first compound 0.2 µM) was 0.22, the relative viability (SW 1573; first compound 0.6325 µM) was 0.318 and the relative viability (SW 1573; first compound 2 µM) was 0.194. The relative viability (SW 1573; first compound 6.325 µM) was 0.143, the relative viability (SW 1573; first compound 20 µM) was 0.069 and the relative viability (HOP-62; first compound 0.2 µM) was 1.01. It also gave a relative viability (HOP-62; first compound 0.6325 µM) of 0.841, a relative viability (HOP-62; first compound 2 µM) of 0.893 and a relative viability (HOP-62; first compound 6.325 µM) of 0.758. The relative viability (HOP-62; first compound 20 µM) was 0.301, the relative viability (EMC-BAC-2; first compound 0.2 µM) was 1.12 and the relative viability (EMC-BAC-2; first compound 0.6325 µM) was 1.14. For the same compound, the relative viability (EMC-BAC-2; first compound 2 µM) was 1.13, the relative viability (EMC-BAC-2; first compound 6.325 µM) was 1.03 and the relative viability (EMC-BAC-2; first compound 20 µM) was 0.423. It also gave a relative viability (HCC-44; first compound 0.2 µM) of 0.952, a relative viability (HCC-44; first compound 0.6325 µM) of 1.04 and a relative viability (HCC-44; first compound 2 µM) of 0.433. It also gave a relative viability (HCC-44; first compound 6.325 µM) of 0.735, a relative viability (HCC-44; first compound 20 µM) of 0.228 and a relative viability (NCI-H1734; first compound 0.2 µM) of 0.0909. For the same compound, the relative viability (NCI-H1734; first compound 0.6325 µM) was 0.233, the relative viability (NCI-H1734; first compound 2 µM) was 0.198 and the relative viability (NCI-H1734; first compound 6.325 µM) was 0.168. The relative viability (NCI-H1734; first compound 20 µM) was 0.157, the relative viability (NCI-H1395; first compound 0.2 µM) was 0.66 and the relative viability (NCI-H1395; first compound 0.6325 µM) was 0.547. The relative viability (NCI-H1395; first compound 2 µM) was 0.755, the relative viability (NCI-H1395; first compound 6.325 µM) was 0.573 and the relative viability (NCI-H1395; first compound 20 µM) was 0.293. It also gave a relative viability (NCI-H1437; first compound 0.2 µM) of 1.07, a relative viability (NCI-H1437; first compound 0.6325 µM) of 1.1 and a relative viability (NCI-H1437; first compound 2 µM) of 0.992. For the same compound, the relative viability (NCI-H1437; first compound 6.325 µM) was 0.846, the relative viability (NCI-H1437; first compound 20 µM) was 0.452 and the relative viability (NCI-H727; first compound 0.2 µM) was 0.353. It also gave a relative viability (NCI-H727; first compound 0.6325 µM) of 0.309, a relative viability (NCI-H727; first compound 2 µM) of 0.386 and a relative viability (NCI-H727; first compound 6.325 µM) of 0.386. For the same compound, the relative viability (NCI-H727; first compound 20 µM) was 0.392, the relative viability (NCI-H358; first compound 0.2 µM) was 0.472 and the relative viability (NCI-H358; first compound 0.6325 µM) was 0.292. For the same compound, the relative viability (NCI-H358; first compound 2 µM) was 0.303, the relative viability (NCI-H358; first compound 6.325 µM) was 0.204 and the relative viability (NCI-H358; first compound 20 µM) was 0.211. It also gave a relative viability (SW 900; first compound 0.2 µM) of 0.174, a relative viability (SW 900; first compound 0.6325 µM) of 0.199 and a relative viability (SW 900; first compound 2 µM) of 0.19. It also gave a relative viability (SW 900; first compound 6.325 µM) of 0.185, a relative viability (SW 900; first compound 20 µM) of 0.2 and a relative viability (NCI-H2170; first compound 0.2 µM) of 0.707. For the same compound, the relative viability (NCI-H2170; first compound 0.6325 µM) was 0.497, the relative viability (NCI-H2170; first compound 2 µM) was 0.729 and the relative viability (NCI-H2170; first compound 6.325 µM) was 0.473. The relative viability (NCI-H2170; first compound 20 µM) was 0.434, the relative viability (NCI-H1563; first compound 0.2 µM) was 0.51 and the relative viability (NCI-H1563; first compound 0.6325 µM) was 0.607. The relative viability (NCI-H1563; first compound 2 µM) was 0.519, the relative viability (NCI-H1563; first compound 6.325 µM) was 0.553 and the relative viability (NCI-H1563; first compound 20 µM) was 0.362. For the same compound, the relative viability (NCI-H650; first compound 0.2 µM) was 0.822, the relative viability (NCI-H650; first compound 0.6325 µM) was 0.619 and the relative viability (NCI-H650; first compound 2 µM) was 0.85. The relative viability (NCI-H650; first compound 6.325 µM) was 0.704 and the relative viability (NCI-H650; first compound 20 µM) was 0.288.
